ChEMBL document CHEMBL1156887, “Discovery of olodaterol, a novel inhaled beta2-adrenoceptor agonist with a 24 h bronchodilatory efficacy” (Bioorg Med Chem Lett, 2010)

How the values were obtained:
[1] = Oral bioavailability in rat; format: ADME, organism-based; conditions: in vivo
[2] = Apparent permeability from basolateral to apical side in human Caco-2 cells; format: ADME, cell-based
[3] = Lipophilicity, log D at pH 7.4; format: physicochemical; conditions: buffer
[4] = Apparent permeability from apical to basolateral side in human Caco-2 cells; format: ADME, cell-based

COc1ccc(CC(C)(C)NC[C@H](O)c2cc(O)cc3c2OCC(=O)N3)cc1 [OLODATEROL]
bioavailability [1]: 3% | Papp B→A [2]: 9 ×10⁻⁶ cm/s | logD [3]: 1.2 | Papp A→B [4]: 0.35 ×10⁻⁶ cm/s
